# Assay results: PubChem BioAssay (NCI)
#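 Step 1: Grow cells in 96-well plates. Step 2: Expose to compound for 48 hours at 5 concentrations. Step 3: Interpolate endpoints linearly; if unreached, use highest concentration. TGI marks complete inhibition of growth.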
# Key:
# Test in all cases: inhibition of tumour cell growth, NCI panel, 48 h
# [1] = tested on: SF-268 CNS
# [2] = tested on: MDA-N
# [3] = tested on: 786-0 renal
# [4] = tested on: CAKI-1 renal
# [5] = tested on: ACHN renal
# [6] = tested on: SF-539 CNS
# [7] = tested on: OVCAR-8 ovarian
# [8] = tested on: SK-MEL-28 melanoma
# [9] = tested on: SW-620 colon
# [10] = tested on: MALME-3M melanoma
# [11] = tested on: CCRF-CEM leukemia
# [12] = tested on: HCT-116 colon
# [13] = tested on: HL-60(TB) leukemia
# [14] = tested on: TK-10 renal
# [15] = tested on: RXF 393 renal
# [16] = tested on: SK-OV-3 ovarian
# [17] = tested on: PC-3 prostate
# [18] = tested on: MDA-MB-435
# [19] = tested on: HCT-15 colon
# [20] = tested on: SNB-75 CNS
# [21] = tested on: SK-MEL-2 melanoma
# [22] = tested on: NCI-H226 lung
# [23] = tested on: UACC-257 melanoma
# [24] = tested on: HS 578T breast
# [25] = tested on: SNB-19 CNS
# [26] = tested on: OVCAR-5 ovarian
# [27] = tested on: BT-549 breast
# [28] = tested on: M14 melanoma
# [29] = tested on: IGROV1 ovarian
# [30] = tested on: NCI-H23 lung
# [31] = tested on: DU-145 prostate
# [32] = tested on: HOP-62 NSCLC
# [33] = tested on: KM12 colon
# [34] = tested on: HT29 colon
# [35] = tested on: OVCAR-4 ovarian
# [36] = tested on: UO-31 renal
# [37] = tested on: COLO 205 colon
# [38] = tested on: U251 CNS
# [39] = tested on: OVCAR-3 ovarian
# [40] = tested on: MCF7 breast
# [41] = tested on: HCC-2998 colon
# [42] = tested on: HOP-92 NSCLC
# [43] = tested on: MDA-MB-231 breast
# [44] = tested on: EKVX NSCLC
# [45] = tested on: A549 NSCLC
# [46] = tested on: SN12C renal
# [47] = tested on: RPMI-8226 leukemia
# [48] = tested on: K-562 leukemia
# [49] = tested on: SK-MEL-5 melanoma
# [50] = tested on: NCI/ADR-RES ovarian
# [51] = tested on: LOX IMVI melanoma
# [52] = tested on: T-47D breast
# [53] = tested on: NCI-H460 lung
# [54] = tested on: UACC-62 melanoma
# [55] = tested on: NCI-H522 lung
# [56] = tested on: SF-295 CNS
# [57] = tested on: A498 renal
smiles,measurement,setting,value
COC(=O)[C@]1(C)CCC[C@]2(C)[C@H]3CC[C@]4(C(C)C)OO[C@@H](O4)[C@]34O[C@@H]4C[C@H]21,TGI,[1],5.31 µM
same,TGI,[2],6.13 µM
same,TGI,[3],3.49 µM
same,TGI,[4],0.927 µM
same,TGI,[5],1.75 µM
same,TGI,[6],> 55.6 µM
same,TGI,[7],26.5 µM
same,TGI,[8],> 63.9 µM
same,TGI,[9],> 33.7 µM
same,TGI,[10],20.5 µM
same,TGI,[11],> 100 µM
same,TGI,[12],3.03 µM
same,TGI,[13],4.88 µM
same,TGI,[14],12.2 µM
same,TGI,[15],11.6 µM
same,TGI,[16],4.83 µM
same,TGI,[17],3.11 µM
same,TGI,[18],3.89 µM
same,TGI,[19],7.06 µM
same,TGI,[20],11.2 µM
same,TGI,[21],29.1 µM
same,TGI,[22],13.5 µM
same,TGI,[23],32.1 µM
same,TGI,[24],8.65 µM
same,TGI,[25],24.5 µM
same,TGI,[26],16.3 µM
same,TGI,[27],10.9 µM
same,TGI,[28],17.3 µM
same,TGI,[29],0.336 µM
same,TGI,[30],23.5 µM
same,TGI,[31],3.07 µM
same,TGI,[32],7 µM
same,TGI,[33],11.2 µM
same,TGI,[34],3.91 µM
same,TGI,[35],3.73 µM
same,TGI,[36],1.46 µM
same,TGI,[37],5.2 µM
same,TGI,[38],13.5 µM
same,TGI,[39],3.65 µM
same,TGI,[40],5.75 µM
same,TGI,[41],4.88 µM
same,TGI,[42],4.14 µM
same,TGI,[43],15 µM
same,TGI,[44],3.71 µM
same,TGI,[45],3.56 µM
same,TGI,[46],12 µM
same,TGI,[47],> 100 µM
same,TGI,[48],> 100 µM
same,TGI,[49],8.02 µM
same,TGI,[50],30.9 µM
same,TGI,[51],1.04 µM
same,TGI,[52],3.84 µM
same,TGI,[53],3.88 µM
same,TGI,[54],17.7 µM
same,TGI,[55],3.43 µM
same,TGI,[56],8.77 µM
Brc1cccc(Nc2ncnc3sc4c(c23)CCC2(C4)OCCO2)c1,TGI,[1],> 100 µM
same,TGI,[2],> 100 µM
same,TGI,[3],> 100 µM
same,TGI,[4],> 100 µM
same,TGI,[5],> 100 µM
same,TGI,[57],42 µM
same,TGI,[7],> 100 µM
same,TGI,[9],28.9 µM
same,TGI,[10],> 100 µM
same,TGI,[12],> 100 µM
same,TGI,[14],68.9 µM
same,TGI,[16],> 100 µM
same,TGI,[17],> 100 µM
same,TGI,[18],87 µM
same,TGI,[19],> 100 µM
same,TGI,[20],80.9 µM
same,TGI,[21],79.7 µM
same,TGI,[22],77.6 µM
same,TGI,[23],91.4 µM
same,TGI,[24],> 100 µM
same,TGI,[25],> 100 µM
same,TGI,[26],> 100 µM
same,TGI,[27],75.2 µM
same,TGI,[28],68.6 µM
same,TGI,[29],30.9 µM
same,TGI,[30],> 100 µM
same,TGI,[31],50.1 µM
same,TGI,[32],> 100 µM
same,TGI,[33],80.4 µM
same,TGI,[34],> 100 µM
same,TGI,[35],94.5 µM
same,TGI,[36],> 100 µM
same,TGI,[37],35.6 µM
same,TGI,[38],> 100 µM
same,TGI,[39],> 100 µM
same,TGI,[40],> 100 µM
same,TGI,[41],72.1 µM
same,TGI,[42],48.6 µM
same,TGI,[43],> 100 µM
same,TGI,[44],> 100 µM
same,TGI,[45],> 100 µM
same,TGI,[46],> 100 µM
same,TGI,[49],32.3 µM
same,TGI,[50],76.4 µM
same,TGI,[51],40.9 µM
same,TGI,[52],40.9 µM
same,TGI,[53],> 100 µM
same,TGI,[54],70.5 µM
same,TGI,[55],33.8 µM
same,TGI,[56],> 100 µM
